What all share (format): cell-based
For assay [1], the system named is E. cloacae ATCC13047. As to the kind of experiment: MIC by microbroth dilution (CLSI), strain No. 1. The conditions noted are these: E. cloacae ATCC13047, AmpC, ceftazidime-resistant, cefepime-sensitive, cation-adjusted Mueller-Hinton broth; for MIC: Enterobacter cloacae, read-out: minimum inhibitory concentration (MIC), Strain No. 1. As to the method:
(§1) The minimum inhibitory concentration (MIC) was measured by the microbroth dilution method in accordance with the procedures recommended by CLSI (Clinical and Laboratory Standards Institute) using 1×10^5 CFU/mL as an inoculum dose and a cation-adjusted Mueller-Hinton broth as a test medium.
(§2) The strains used are as described in the table below.
On the technique in general: In broth dilution the organism is exposed to a series of concentrations in liquid medium.

For assay [2], the system named is K. pneumoniae SR01358. Briefly: MIC by microbroth dilution (CLSI), strain No. 2. The conditions noted are these: Klebsiella pneumoniae; K. pneumoniae SR01358, KPC-2; KPC-producing strain; cation-adjusted Mueller-Hinton broth; read-out: minimum inhibitory concentration (MIC), Strain No. 2. On the procedure:
as §1, §2

The subject of assay [3] is K. pneumoniae SR01453. Briefly: MIC by microbroth dilution (CLSI), strain No. 3. The conditions noted are these: K. pneumoniae SR01453, NDM-1, MBL-producing strain, carbapenem-resistant, cation-adjusted Mueller-Hinton broth; for MIC: Klebsiella pneumoniae, read-out: minimum inhibitory concentration (MIC), Strain No. 3. On the procedure: as §1, §2
Assay [4] relates to K. pneumoniae NCTC13443. Briefly: MIC by microbroth dilution (CLSI), strain No. 4. The note with it: K. pneumoniae NCTC13443, NDM-1, MBL-producing strain, carbapenem-resistant, cation-adjusted Mueller-Hinton broth; for MIC: Klebsiella pneumoniae, read-out: minimum inhibitory concentration (MIC), Strain No. 4. On the procedure: as §1, §2
The subject of assay [5] is E. cloacae SR36276. As to the kind of experiment: MIC by microbroth dilution (CLSI), strain No. 5. The note with it: E. cloacae SR36276, AmpC, highly AmpC-producing strain, ceftazidime-resistant, cefepime-sensitive, cation-adjusted Mueller-Hinton broth; for MIC: Enterobacter cloacae, read-out: minimum inhibitory concentration (MIC), Strain No. 5. On the procedure: as §1, §2

Assay [6] relates to E. coli SR09613. As to the kind of experiment: MIC by microbroth dilution (CLSI), strain No. 6. The conditions noted are these: for MIC: Escherichia coli, SR09613, read-out: minimum inhibitory concentration (MIC), Strain No. 6; for minimum inhibitory concentration (MIC), Strain No. 6: E. coli SR09613, CMY-2 type, plasmid AmpC-producing strain, ceftazidime-resistant, cefepime-sensitive, cation-adjusted Mueller-Hinton broth. As to the method:
as §1, §2

In brackets after ≈: the same amount, converted by molar mass.

Consider `Nc1nc(/C(=N/OCC(=O)O)C(=O)N[C@@H]2C(=O)N3[C@@H]2[S@@+]([O-])C[C@@H]2CC(=O)O[C@@]23C(=O)O)cs1` [Compound I-001], for which the MIC in assay [1] worked out at 0.125 µg/mL (≈ 0.249 µM); in assay [2], 0.25 µg/mL (≈ 0.499 µM); in assay [3], 0.063 µg/mL (≈ 0.126 µM); in assay [4] it was 1 µg/mL (≈ 1.99 µM); in assay [5], 0.063 µg/mL (≈ 0.126 µM).
Take `Nc1nc(/C(=N/OCC(=O)O)C(=O)N[C@@H]2C(=O)N3[C@@H]2S(=O)(=O)C[C@@H]2CC(=O)O[C@@]23C(=O)O)cs1` [Compound I-003]: the MIC in assay [1] was found to be 0.25 µg/mL (≈ 0.483 µM); in assay [2], 0.5 µg/mL (≈ 0.966 µM); in assay [3], 0.25 µg/mL (≈ 0.483 µM); in assay [4], 4 µg/mL (≈ 7.73 µM); in assay [5], 1 µg/mL (≈ 1.93 µM).
Consider `C[C@H](O/N=C(\C(=O)N[C@@H]1C(=O)N2[C@@H]1[S@@+]([O-])C[C@@H]1CC(=O)O[C@@]12C(=O)O)c1csc(N)n1)C(=O)O` [Compound I-005], for which the MIC came out at 0.5 µg/mL (≈ 0.97 µM) in assay [1]; 0.5 µg/mL (≈ 0.97 µM) in assay [2]; 0.125 µg/mL (≈ 0.242 µM) in assay [3]; 1 µg/mL (≈ 1.94 µM) in assay [4]; 0.125 µg/mL (≈ 0.242 µM) in assay [5].
Turning to `CC(C)(O/N=C(\C(=O)N[C@@H]1C(=O)N2[C@@H]1[S@@+]([O-])C[C@@H]1CC(=O)O[C@@]12C(=O)[O-])c1csc(N)n1)C(=O)[O-].[Na+].[Na+]` [Compound I-007], the MIC in assay [1] is 0.25 µg/mL; in assay [2], 0.5 µg/mL; in assay [3], 0.5 µg/mL; in assay [4], 2 µg/mL; in assay [5], 0.25 µg/mL.
For the molecule `CC[C@H](O/N=C(\C(=O)N[C@@H]1C(=O)N2[C@@H]1[S@@+]([O-])C[C@@H]1CC(=O)O[C@@]12C(=O)O)c1csc(N)n1)C(=O)O` [Compound I-009], the MIC in assay [1] was determined as 0.5 µg/mL (≈ 0.944 µM); in assay [3] it was 0.5 µg/mL (≈ 0.944 µM); in assay [4], 4 µg/mL (≈ 7.55 µM); in assay [5], 0.25 µg/mL (≈ 0.472 µM).
Regarding `Nc1nc(/C(=N/OCCF)C(=O)N[C@@H]2C(=O)N3[C@@H]2[S@@+]([O-])C[C@@H]2CC(=O)O[C@@]23C(=O)O)cs1` [Compound I-010], the MIC in assay [1] came out at 0.25 µg/mL (≈ 0.511 µM); in assay [3], 0.25 µg/mL (≈ 0.511 µM); in assay [4], 8 µg/mL (≈ 16.3 µM); in assay [5] it was 1 µg/mL (≈ 2.04 µM).
As to `Nc1nc(/C(=N/OC2(C(=O)[O-])CC2)C(=O)N[C@@H]2C(=O)N3[C@@H]2[S@@+]([O-])C[C@@H]2CC(=O)O[C@@]23C(=O)[O-])cs1.[Na+].[Na+]` [Compound I-015], the MIC worked out at 0.125 µg/mL in assay [1]; 0.5 µg/mL in assay [2]; 0.125 µg/mL in assay [3]; 1 µg/mL in assay [4]; 0.125 µg/mL in assay [5].
`CCO/N=C(\C(=O)N[C@@H]1C(=O)N2[C@@H]1[S@@+]([O-])C[C@@H]1CC(=O)O[C@@]12C(=O)O)c1csc(N)n1` [Compound I-019]: the MIC in assay [1] is 0.5 µg/mL (≈ 1.06 µM); in assay [3] it was 0.5 µg/mL (≈ 1.06 µM); in assay [4] it was 8 µg/mL (≈ 17 µM); in assay [5], 1 µg/mL (≈ 2.12 µM).
Consider `CC(C)[C@H](O/N=C(\C(=O)N[C@@H]1C(=O)N2[C@@H]1[S@@+]([O-])C[C@@H]1CC(=O)O[C@@]12C(=O)O)c1csc(N)n1)C(=O)O` [Compound I-022], for which the MIC turned out to be 1 µg/mL (≈ 1.84 µM) in assay [3] and 0.5 µg/mL (≈ 0.92 µM) in assay [5].
Take `CO/N=C(\C(=O)N[C@@H]1C(=O)N2[C@@H]1[S@@+]([O-])C[C@@H]1CC(=O)O[C@@]12C(=O)[O-])c1csc(N)n1.[Na+]` [Compound I-023]: the MIC is 0.25 µg/mL in assay [1]; 1 µg/mL in assay [2]; 0.25 µg/mL in assay [3]; 4 µg/mL in assay [4]; 1 µg/mL in assay [5].
`Nc1nc(/C(=N/O)C(=O)N[C@@H]2C(=O)N3[C@@H]2[S@@+]([O-])C[C@@H]2CC(=O)O[C@@]23C(=O)O)cs1` [Compound I-024]: the MIC stood at 2 µg/mL (≈ 4.51 µM) in assay [3] and 4 µg/mL (≈ 9.02 µM) in assay [5].
For `Nc1nc(/C(=N/O[C@H](CO)C(=O)O)C(=O)N[C@@H]2C(=O)N3[C@@H]2[S@@+]([O-])C[C@@H]2CC(=O)O[C@@]23C(=O)O)cs1` [Compound I-026], the MIC was 0.125 µg/mL (≈ 0.235 µM) in assay [1]; 0.5 µg/mL (≈ 0.941 µM) in assay [2]; 0.125 µg/mL (≈ 0.235 µM) in assay [3]; 1 µg/mL (≈ 1.88 µM) in assay [4]; 0.125 µg/mL (≈ 0.235 µM) in assay [5].
For the molecule `Nc1nc(/C(=N/O[C@@H](CO)C(=O)O)C(=O)N[C@@H]2C(=O)N3[C@@H]2[S@@+]([O-])C[C@@H]2CC(=O)O[C@@]23C(=O)O)cs1` [Compound I-027], the MIC in assay [1] was 0.063 µg/mL (≈ 0.119 µM); in assay [2], 0.25 µg/mL (≈ 0.47 µM); in assay [3], 0.063 µg/mL (≈ 0.119 µM); in assay [4] it was 1 µg/mL (≈ 1.88 µM); in assay [5] it was not above 0.031 µg/mL.
With `Nc1nc(/C(=N/OCC(=O)O)C(=O)N[C@@H]2C(=O)N3[C@@H]2[SH](O)C[C@@H]2CC(=O)O[C@@]23C(=O)O)c(F)s1` (stereo partly drawn) [Compound I-036], the “minimum inhibitory concentration (MIC), Strain No. 1” value in assay [1] was determined as 0.5 µg/mL (≈ 0.959 µM). Further, the “minimum inhibitory concentration (MIC), Strain No. 3” value in assay [3] came to 1 µg/mL (≈ 1.92 µM). For the same molecule, in assay [4], the “minimum inhibitory concentration (MIC), Strain No. 4” value was determined as 8 µg/mL (≈ 15.3 µM). Moreover, the “minimum inhibitory concentration (MIC), Strain No. 5” value in assay [5] was determined as 1 µg/mL (≈ 1.92 µM).
As to `Nc1nc(/C(=N/OCc2ccncc2)C(=O)N[C@@H]2C(=O)N3[C@@H]2[S@@+]([O-])C[C@@H]2CC(=O)O[C@@]23C(=O)O)cs1` [Compound I-040], in assay [6], the MIC amounted to 4 µg/mL (≈ 7.48 µM).
With `C[n+]1cccc(CO/N=C(\C(=O)N[C@@H]2C(=O)N3[C@@H]2[S@@+]([O-])C[C@@H]2CC(=O)O[C@@]23C(=O)[O-])c2csc(N)n2)c1` [Compound I-043], the MIC in assay [3] and in assay [6] was 2 µg/mL (≈ 3.65 µM) throughout.
Consider `CC(CO)(CO)O/N=C(\C(=O)N[C@@H]1C(=O)N2[C@@H]1[S@@+]([O-])C[C@@H]1CC(=O)O[C@@]12C(=O)O)c1csc(N)n1` [Compound I-045], for which the MIC was 0.5 µg/mL (≈ 0.941 µM) in assay [1]; 0.25 µg/mL (≈ 0.47 µM) in assay [3]; 8 µg/mL (≈ 15.1 µM) in assay [4]; 2 µg/mL (≈ 3.76 µM) in assay [5]; 0.25 µg/mL (≈ 0.47 µM) in assay [6].
For the molecule `Nc1nc(/C(=N/OCC(=O)O)C(=O)N[C@@H]2C(=O)N3[C@@H]2[S@@+]([O-])C[C@@H]2CC(=O)O[C@@]23c2nnn[nH]2)cs1` [Compound I-046], the MIC was 1 µg/mL (≈ 1.9 µM) in assay [1], 0.5 µg/mL (≈ 0.952 µM) in assay [3] and 0.5 µg/mL (≈ 0.952 µM) in assay [5].
Turning to `CC(=O)NCCO/N=C(\C(=O)N[C@@H]1C(=O)N2[C@@H]1[S@@+]([O-])C[C@@H]1CC(=O)O[C@@]12C(=O)O)c1csc(N)n1` [Compound I-054], the “minimum inhibitory concentration (MIC), Strain No. 1” value in assay [1] worked out at 1 µg/mL (≈ 1.89 µM). Moreover, in assay [3], the “minimum inhibitory concentration (MIC), Strain No. 3” value worked out at 0.5 µg/mL (≈ 0.946 µM). For the same molecule, the “minimum inhibitory concentration (MIC), Strain No. 5” value in assay [5] came to 4 µg/mL (≈ 7.57 µM). Also, the “minimum inhibitory concentration (MIC), Strain No. 6” value in assay [6] is 0.5 µg/mL (≈ 0.946 µM).
With `Nc1nc(/C(=N/OCc2cc(O)no2)C(=O)N[C@@H]2C(=O)N3[C@@H]2[S@H](O)C[C@@H]2CC(=O)O[C@@]23C(=O)[O-])cs1.[Na+]` [Compound I-063], the “minimum inhibitory concentration (MIC), Strain No. 6” value in assay [6] was determined as 4 µg/mL.
Regarding `COC(=O)NCCO/N=C(\C(=O)N[C@@H]1C(=O)N2[C@@H]1[S@@+]([O-])C[C@@H]1CC(=O)O[C@@]12C(=O)[O-])c1csc(N)n1.[Na+]` [Compound I-064], the MIC in assay [3] was 2 µg/mL.
As to `CCO/N=C(\C(=O)N[C@@H]1C(=O)N2[C@@H]1S(=O)(=O)C[C@@H]1CC(=O)O[C@@]12C(=O)[O-])c1csc(N)n1.[Na+]` [Compound I-071], the MIC in assay [1] came to 2 µg/mL; in assay [3] it was 1 µg/mL; in assay [4] it was 8 µg/mL; in assay [5], 4 µg/mL.
